# Literature values as cited in patent US12042557B2, “Rapid establishment and/or termination of substantial steady-state drug delivery” (Intarcia Therapeutics, Inc., priority 2009, dated 2024).
# Read-outs that look alike come from different tables or passages of the source.
# Experiments:
# [1] = tested on: subjects on metformin-only background treatment, type 2 diabetes mellitus
# [2] = in vivo
# [3] = Treatment F: oral 100 mg/day, subjects with baseline HbA1c less than 9.0
# [4] = Treatment F: oral once a day 100 mg/day, metformin background, Bergenstal 2010
Molecule,"change of HbA1c for the study [1, 3] [%]","endpoint HbA1c % [1, 3] [%]","change of HbA1c for the study [1, 4] [%]","endpoint HbA1c % [1, 4] [%]","percentage of subjects who achieved an HbA1c of 7% or less [1, 4] [%]",half-life [2]
"N[C@@H](CC(=O)N1CCn2c(nnc2C(F)(F)F)C1)Cc1cc(F)c(F)cc1F [sitagliptin, Sitagliptin]",−0.5,7.2,−0.9,7.6,31,–
PYY: 36 amino acid residue peptide amide [peptide YY],–,–,–,–,–,approximately 8 minutes
